Measured values: US12298318B2, “Targeting ligands for tau pathology” (Texas Children's Hospital, priority 2019, dated 2025)

Key:
[1] = test system: OA treated differentiated SH-SY5Y cells; experiment: Cell-SELEX sequence abundance by next-generation sequencing; set-up: species or system human; settings: SELEX cycle 26
Protocol: Aptamer screening was performed using the cell-SELEX approach on differentiated SH-SY5Y cells in a hyperphosphorylative state. FIGS. 2A-2E describe how cell-SELEX was used to identify biomarkers of onset the of AD. OA treated differentiated SH-SY5Y cells were used as a surrogate for hyperphosphorylative neurons to screen DNA aptamers that specifically recognize the differences between the surfaces of treated and untreated cells, using the cell-SELEX methodology modified to capture membrane binding aptamers. A total of 26 cell SELEX cycles were performed. […]
Negative selection eliminated certain sequences that were not specific to the hyperphosphorylative state or have a propensity for hepatocyte uptake. […] The 23 most abundant sequences at round 26 were identified, and their abundance throughout the SELEX process as calculated using AptaAligner is shown in FIG. 2B. […] The secondary structure of the aptamers Tau_1 (SEQ ID NO: 5; DONGYBM) and Tau_3 (SEQ ID NO: 6; MUSQD) calculated using mfold is shown in FIG. 2D. […]
Next-Generation Sequencing (NGS). […] Equimolar quantities of the recovered TA sequences over the range were pooled together and sequenced by Next-Gen DNA sequencing using Ion318 chip (ThermoFisher, Waltham, MA). […]

[2] = test system: hyperphosphorylated SH SY5Y cells; experiment: Saturation binding of Cy5-labeled aptamer, apparent Kd, SH-SY5Y cells; set-up: species or system human; settings: read-out: apparent equilibrium dissociation constant (Kdapp)
Protocol: (§1) The apparent equilibrium dissociation constants (Kdapp) were measured by serial dilution of aptamer solutions with target hyperphosphorylated, non-target differentiated, and undifferentiated SH-SY5Y cells. The affinity of these aptamers was also tested with another immortal neural progenitor stem cell line, ReN-VM, in hyperphosphorylative and non-hyperphosphorylative conditions. The Kdapp for Tau_1 (SEQ ID NO: 5; DONGYBM) and Tau_3 (SEQ ID NO: 6; MUSQD) with hyperphosphorylated SH SY5Y cells is 0.167±0.015 nM and 0.194±0.032 nM; and for the ReN-VM cells 318.15±46.2 nM and 234.24±38.6 nM, respectively (FIG. 3).
(§2) Hyperphosphorylation. Hyperphosphorylation was induced in SH-SY5Y cells by addition of 30 nM OA (Sigma Aldrich, St. Louis, MO, #459620) in growth medium with 30 μM RA for 24 h. ReNcell VM were hyperphosphorylated using 100 nM QA (SigmaAldrich, St. Louis, MO, #P63204) in culture media for 24 h.
(§3) Aptamer binding studies. Aptamer binding studies were conducted with undifferentiated, differentiated, and hyperphosphorylated SH SY5Y and ReN cell VM grown in 96-wells seeded at 10000 per well. […]

[3] = test system: hyperphosphorylative SH-SY5Y cells; experiment: Binding studies with Cy5-labeled aptamer (cell staining); type: cell-based, human; settings: 50 nM, 2 h at 4° C. (FIG. 2C)
From the text: Negative selection eliminated certain sequences that were not specific to the hyperphosphorylative state or have a propensity for hepatocyte uptake. However, the relative abundance of key sequences increased steadily throughout the whole process. The 23 most abundant sequences at round 26 were identified, and their abundance throughout the SELEX process as calculated using AptaAligner is shown in FIG. 2B. The sequence Tau_1 (SEQ ID NO: 5; DONGYBM) was the most prevalent at cycle 26, representing 20.6% of the thioaptamers present. A single base difference from this sequence, Tau_3 (SEQ ID NO: 6; MUSQD), was the second most represented sequence (10.4%). […] The secondary structure of the aptamers Tau_1 (SEQ ID NO: 5; DONGYBM) and Tau_3 (SEQ ID NO: 6; MUSQD) calculated using mfold is shown in FIG. 2D. The sequences present at the final round were grouped by hierarchical clustering and sequence homology using the multiple sequence alignment code MAFFT showing five distinct families, which were also presented as a cladogram (using the Clustal Omega) showing the common ancestry between these five aptamers families (FIG. 2E).
Immunocytochemistry. […]

ReN-VM cells = experiment: Saturation binding of Cy5-labeled aptamer, apparent Kd, ReN-VM cells; settings: read-out: apparent equilibrium dissociation constant (Kdapp)
Protocol: as §1, §2, §3

[4] = test system: hyperphosphorylated SH-SY5Y cells; experiment: Aptamer-based pulldown and mass spectrometry target identification; set-up: species or system human; settings: pulldown / immunoprecipitation, mass-spectrometry
Protocol: To characterize the binding target of the aptamers, an aptamer-based pulldown assay was performed, along with aptamer-based immunoprecipitation, followed by mass-spectrometry. The assay was performed for both Tau_1 (SEQ ID NO: 5; DONGYBM) and Tau_3 (SEQ ID NO: 6; MUSQD) aptamers. […] The surface expression of Keratin 6a, 6b was similar on wild-type and transgenic tissue sections, whereas the VIM expression was higher in the Tg mice (FIG. 6C).
Target Identification. The protein targets of Tau_1 (SEQ ID NO: 5; DONGYBM), Tau_3 (SEQ ID NO: 6; MUSQD), Tau-4, and Tau-5 were identified by affinity-pull down using the selected aptamers as the capturing reagent followed by mass-spectroscopy. A scrambled DNA sequence, R2, was used as a control. The hyperphosphorylated SH-SY5Y cells, at 90-95% confluence, were washed with cold PBS buffer and incubated with biotinylated selected aptamers with […] each at 4° C. in PBS, respectively. After 2 hours of gentle agitation, SH-SY5Y cells were cross-linked with 1% formaldehyde for 10 min at rt. The formaldehyde cross-linking was quenched with glycine. Cells were scraped from the plate, washed, lysed with lysing buffer (Thermofisher Scientific, #87787), and treated with protease inhibitor mixture. The lysates were freeze-thawed for 30 min on ice and cleared by centrifuging at 10,000×g for 2 min at 4° C. […] Each sample was analyzed in triplicate. […]

tetrameric VIM = tetrameric VIM (Homo sapiens, UniProt P08670); settings: cited from earlier work
MAO-B enzyme = target: T1, MAO-B enzyme (Homo sapiens, UniProt P27338); settings: brain; cited from earlier work
T1 sequence (P27338 1-520): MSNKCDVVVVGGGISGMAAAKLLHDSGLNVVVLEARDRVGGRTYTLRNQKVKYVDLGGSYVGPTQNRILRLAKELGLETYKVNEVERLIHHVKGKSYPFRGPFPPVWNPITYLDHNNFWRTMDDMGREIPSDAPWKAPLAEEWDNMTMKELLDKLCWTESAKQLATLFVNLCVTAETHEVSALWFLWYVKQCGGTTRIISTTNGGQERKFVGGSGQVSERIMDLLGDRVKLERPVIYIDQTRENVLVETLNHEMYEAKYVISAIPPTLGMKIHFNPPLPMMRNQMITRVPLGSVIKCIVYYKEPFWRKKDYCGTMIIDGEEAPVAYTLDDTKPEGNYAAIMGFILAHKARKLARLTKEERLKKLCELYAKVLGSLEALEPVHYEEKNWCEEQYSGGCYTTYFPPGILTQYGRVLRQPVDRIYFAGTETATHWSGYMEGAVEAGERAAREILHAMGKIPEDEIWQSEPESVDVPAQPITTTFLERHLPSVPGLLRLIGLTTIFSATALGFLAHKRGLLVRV

tetrameric VIM, sequence (P08670 whole entry): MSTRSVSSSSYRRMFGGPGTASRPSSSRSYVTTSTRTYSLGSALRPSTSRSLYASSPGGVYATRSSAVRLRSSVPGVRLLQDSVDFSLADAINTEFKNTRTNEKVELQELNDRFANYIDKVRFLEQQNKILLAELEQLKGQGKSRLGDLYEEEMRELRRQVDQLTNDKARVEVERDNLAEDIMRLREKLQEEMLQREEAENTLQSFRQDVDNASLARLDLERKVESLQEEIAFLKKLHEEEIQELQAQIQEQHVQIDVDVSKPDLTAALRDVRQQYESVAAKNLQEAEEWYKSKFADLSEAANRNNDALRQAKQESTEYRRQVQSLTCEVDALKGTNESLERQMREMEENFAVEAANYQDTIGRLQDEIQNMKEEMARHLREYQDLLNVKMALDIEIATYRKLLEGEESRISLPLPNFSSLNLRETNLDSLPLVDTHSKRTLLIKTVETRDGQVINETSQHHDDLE

Tau_1: DNA thioaptamer CCCCCCACGGTCTCCGCTCCACAAGTTCAC (DNA, backbone and methylation of C not given here; further chemistry not fully specified)
fraction of the thioaptamers present (abundance) [1]: 20.6%
Kd [2]: 0.167 ± 0.015 nM
binding of Cy5-labeled aptamer to cells [3]: elevated binding levels with the hyperphosphorylative cells
Kd (ReN-VM cells): 318 ± 46.2 nM
possible binding targets by abundance score ranking [4]: keratin 6a, Keratin 6b, and VIM

CC1=C(CO)C(=O)O[C@@H]([C@@H](C)[C@H]2CC[C@H]3[C@@H]4C[C@H]5O[C@]56[C@@H](O)C=CC(=O)[C@]6(C)[C@H]4CC[C@]23C)C1 [Withaferin A]
binding site on vimentin (tetrameric VIM): binds the conserved cysteine 382 residue on tetrameric VIM

Tau_3: DNA thioaptamer CCCCCCACGGTCTCCGCTCCACAAGTCCAC
fraction of the thioaptamers present (abundance) [1]: 10.4%
Kd [2]: 0.194 ± 0.032 nM
binding of Cy5-labeled aptamer to cells [3]: elevated binding levels with the hyperphosphorylative cells
Kd (ReN-VM cells): 234 ± 38.6 nM
possible binding targets by abundance score ranking [4]: keratin 6a, Keratin 6b, and VIM

Fc1ccc(-c2ccc3c(c2)[nH]c2ccncc23)cn1 [Flortaucipir]
off-target binding (MAO-B enzyme): binds the MAO-B enzyme in the brain
